Results published in patent US4038390A, “Salts of p-dihydroxybenzene disulfonic acids for combatting hemorrhages and fragility of the capillaries” (Laboratorios del Dr. Esteve, S.A., priority 1972, dated 1977).

How the values were obtained:
[1] = DL50 of some compounds according to the invention (species not stated); set-up: DL50: unit not given beside the values; settings: in vivo
Excerpt: The following table gives the values for DL50 and DE50, as well as proposed doses of some compounds according to the present invention.

average bleeding time = test: Hemostatic action: average bleeding time, method of ROSKAM modified by LAPORTE, rabbit's ear; type: in vivo; settings: for DE50: effect and route not given; for Percentage decrease of average bleeding time: one hour after administering
Procedure: (§1) The activity for the hemostatic action is determined in vivo, by ROSKAM's method, as modified by LAPORTE, on the rabbit's ear, and the protective action on the capillaries by the method of BEACH and STEINETZ. The therapeutical index (ratio between LD50 and TE50) is very favorable, in view of the high activity and low toxicity.

capillary permeability = test: Protective action on capillaries: capillary permeability, modified method of BEACH-STEINITZ; type: in vivo; settings: mouse
Procedure: as §1
The action of bis diethylamine p-dihydroxy benzene disulfonate on the capillary permeability for the mouse was determined by the modified method of BEACH-STEINITZ (J. Pharmacol. Exp. Ther. 131 (1), 400, 1961). The product, administered i.p., causes a decrease of the capillary permeability which appears after 8 micromoles/kg, and higher doses, and the maximum effect is attained at a dose of 200 micromoles/kg.

[2] = tested on: plasma cholesterol, triglyceride, and total lipids levels; test: Hypolipedemic action in rats treated with Triton WR-1339; type: in vivo, Sprague-Dawley rats
[3] = Acute toxicity in the mouse (LD50, method of Reed and Muench); settings: in vivo
Procedure: (§2) 1. Acute toxicity in the mouse and the rat
(§3) The LD50 was determined according to the method of Reed and Muench.

[4] = Acute toxicity in the rat (LD50, method of Reed and Muench); settings: in vivo
Procedure: as §2
100 to 150 g Sprague-Dawley rats
as §3

Q: Which DL50 ([1]; iv) does the source give for `O=S(=O)(O)c1cc(O)c(S(=O)(=O)O)cc1O` [lithium p-dihydroxybenzene-disulfonate, lithium p-dihydroxy benzene disulfonate] here?
A: The DL50 was 2186.

Q: What about the DE50 (average bleeding time) of the same compound?
A: Its DE50 is 0,90 μmoles/kg.

Q: Which results are given for `O=S(=O)(O)c1cc(O)c(S(=O)(=O)O)cc1O` [bis-diethylamine p-dihydroxy benzene disulfonate] [listing 1 of 2 here]?
A: dose dependence of decrease of capillary permeability (in words) (capillary permeability; i.p., intermediate doses (8 to 200 micromoles/kg)): effects proportional to the logarithm of the dose; FREE CHOLESTEROL (plasma) ([2]; Triton + compound, Triton alone 60.5 ± 2.5): 54.4 ± 3.9 mg %; TOTAL CHOLESTEROL (plasma) ([2]; Triton + compound, Triton alone 238.4 ± 6.5): 223.0 ± 15.1 mg %; TRIGLYCERIDES (plasma) ([2]; Triton + compound, Triton alone 773.5 ± 59.1): 589.5 ± 57.9 mg %; TOTAL LIPIDS (plasma) ([2]; Triton + compound, Triton alone 2466.9 ± 141.2): 2001.9 ± 193.7 mg %; effect on increase of plasma cholesterol, triglyceride, and total lipids levels (in words) ([2]; Triton WR-1339 treated rats): significantly inhibits the increase; Percentage decrease of average bleeding time (average bleeding time; 0.625 micromoles/kg): 8.5%; Percentage decrease of average bleeding time (average bleeding time; 1.25 micromoles/kg): 19.5%; Percentage decrease of average bleeding time (average bleeding time; 2.5 micromoles/kg): 32.0%; duration of effect on bleeding time (in words) (average bleeding time; 5 micromoles/kg): long lasting; % decrease of average bleeding time (average bleeding time; 5 micromoles/kg, 1 hour after i.v. administration): 43.0%; % decrease of average bleeding time (average bleeding time; 5 micromoles/kg, 2 hours after i.v. administration): 46.8%; % decrease of average bleeding time (average bleeding time; 5 micromoles/kg, 4 hours after i.v. administration): 42.0%; % decrease of average bleeding time (average bleeding time; 5 micromoles/kg, 8 hours after i.v. administration): 33.5%; % decrease of average bleeding time (average bleeding time; 5 micromoles/kg, 16 hours after i.v. administration): 32.0%; % decrease of average bleeding time (average bleeding time; 5 micromoles/kg, 24 hours after i.v. administration): 21.0%; Percentage decrease of average bleeding time (average bleeding time; 5.0 micromoles/kg): 43.0%; Percentage decrease of average bleeding time (average bleeding time; 7.05 micromoles/kg): 51.0%; Percentage decrease of average bleeding time (average bleeding time; 10.0 micromoles/kg): 50.0%; DE50 (average bleeding time): 2,25 μmoles/kg; effect on bleeding time (in words) (average bleeding time; rabbit): produces a decrease of the bleeding time

Q: For `O=S(=O)(O)c1cc(O)c(S(=O)(=O)O)cc1O` [bis (ammonium) p-dihydroxy-benzene disulfonate] [bis (ammonium)-p-dihydroxy benzene disulfonate], which DE50 (average bleeding time) is on record?
A: The DE50 was 2,45 μmoles/kg.

Q: For `O=S(=O)(O)c1cc(O)c(S(=O)(=O)O)cc1O` [bis (piperazine) p-dihydroxy-benzene disulfonate] [bis (piperazine) p-dihydroxy benzene disulfonate], which DL50 ([1]; po) is on record?
A: The DL50 was > 2000.

Q: What about the DE50 (average bleeding time) of the same compound?
A: Its DE50 is 1,25 μmoles/kg.

Q: Which LD50 ([1]; route not given) does the source give for `O=S(=O)(O)c1cc(O)c(S(=O)(=O)O)cc1O` [bis (ammonium)-p-dihydroxy benzene disulfonate] here?
A: Its LD50 is 1210 mg/kg.

Q: What does the source list for `O=S(=O)(O)c1cc(O)c(S(=O)(=O)O)cc1O` [bis-diethylamine p-dihydroxy benzene disulfonate] [listing 2 of 2 here]?
A: LD50 ([3]; iv, I.V., mouse female): 1020 mg/kg; LD50 ([3]; iv, I.V., mouse male): 1020 mg/kg; LD50 ([3]; po, mouse female): 5880 mg/kg; LD50 ([3]; po, mouse male): 6290 mg/kg; LD50 ([4]; ip, I.P., rat female): 2440 mg/kg; LD50 ([4]; ip, I.P., rat male): 2650 mg/kg; LD50 ([4]; po, rat female): 4680 mg/kg; LD50 ([4]; po, rat male): 5840 mg/kg; ED (maximum effect) (capillary permeability; ip, read-out: dose at which maximum effect on capillary permeability is attained): 200 µmol/kg; minimal effective dose (capillary permeability; ip, read-out: dose from which decrease of the capillary permeability appears): ≥ 8 µmol/kg

Q: With `O=S(=O)(O)c1cc(O)c(S(=O)(=O)O)cc1O` [calcium p-dihydroxybenzene-disulfonate, calcium p-dihydroxy benzene disulfonate] as the compound, how does the DL50 ([1]; po) read?
A: Its DL50 is > 6880.

Q: What about the DE50 (average bleeding time) of the same compound?
A: The DE50 was 0,98 μmoles/kg.
